Experiments:
[1] = Systolic blood pressure (vital signs)
Protocol: The Investigational Medicinal Product (IMP) R(−)-ketamine hydrochloride in sterile water for intravenous injection was investigated as an […] treatment of TRD. The International Union of Pure and Applied Chemistry (IUPAC) name is of the IMP is (2R)-2-(2-chlorophenyl)-2-(methylamino)cyclohexan-1-one. Subjects received the solution at either 30 mg or 60 mg dose, or a placebo. The IMP or placebo was administered on Day 1 as a single IV infusion via an electronic infusion pump over 40 minutes. The duration of study participation for each subject was up to 29 days including a screening period, a 3-day in-clinic visit, and 2 follow-up visits. 101 subjects were enrolled in approximately 20 study centers in the EU and the US.
Tympanic or temporal temperature, heart rate, blood pressure (SBP/DBP), respiratory rate, and SpO2 were assessed. Blood pressure and pulse measurements will be assessed with a completely automated device while the subject is supine or semi-supine. Manual techniques will be used only if an automated device is not available. Blood pressure and pulse measurements should be preceded by at least 5 minutes of rest for the subject in a quiet setting without distractions (e.g., television, cell phones). An abnormal blood pressure value at screening may be repeated once after 5 minutes of relaxation to determine the subject's eligibility. Blood pressure was recorded using the same arm and position (supine or semi-supine) throughout the study, where possible. Vital signs (to be taken before blood collection for laboratory tests) consisted of 1 pulse and 3 blood pressure measurements (3 consecutive blood pressure readings will be recorded at intervals of at least 1 minute). The average of the 3 blood pressure readings was recorded in the CRF. A pulse oximeter was used to measure peripheral capillary oxygen saturation (SpO2) continuously from pre-dose until 4-hours post-dose. A pulse oximeter was clipped onto the finger or foot of the subject, and light will be sent through the finger or foot and measured on the other side.
In these tables, baseline value is defined as the last non-missing value prior to study drug administration.

[2] = system: mouse model of morphine addiction; experiment: Mouse model of morphine addiction; assay type: in vivo; settings: co-administered to mice
CYP2B6 = molecular target: T1, CYP2B6 (Homo sapiens, UniProt P20813); settings: in vitro
T1 sequence (P20813 1-491): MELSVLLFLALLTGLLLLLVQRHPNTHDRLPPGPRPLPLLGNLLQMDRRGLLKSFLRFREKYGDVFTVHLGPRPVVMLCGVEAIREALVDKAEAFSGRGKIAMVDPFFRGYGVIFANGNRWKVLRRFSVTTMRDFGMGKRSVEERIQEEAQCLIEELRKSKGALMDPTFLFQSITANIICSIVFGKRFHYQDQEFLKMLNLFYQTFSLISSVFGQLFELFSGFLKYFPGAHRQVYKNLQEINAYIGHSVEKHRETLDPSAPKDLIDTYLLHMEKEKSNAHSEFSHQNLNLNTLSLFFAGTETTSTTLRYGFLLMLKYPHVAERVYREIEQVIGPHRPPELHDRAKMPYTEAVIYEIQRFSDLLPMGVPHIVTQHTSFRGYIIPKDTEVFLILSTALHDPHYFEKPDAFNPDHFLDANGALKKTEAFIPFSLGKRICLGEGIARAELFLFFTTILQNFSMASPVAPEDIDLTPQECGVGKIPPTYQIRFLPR

[3] = system: phencyclidine site of the N-methyl-D-aspartate (NMDA) receptor; settings: compared with racemic ketamine or S(+)-ketamine; cited from earlier work
[4] = system: social defeat stress model in mice; settings: cited from earlier work
CYP2C19 = CYP2C19 (Homo sapiens, UniProt P33261); experiment: In vitro CYP inhibition
CYP2C19, sequence (P33261 whole entry): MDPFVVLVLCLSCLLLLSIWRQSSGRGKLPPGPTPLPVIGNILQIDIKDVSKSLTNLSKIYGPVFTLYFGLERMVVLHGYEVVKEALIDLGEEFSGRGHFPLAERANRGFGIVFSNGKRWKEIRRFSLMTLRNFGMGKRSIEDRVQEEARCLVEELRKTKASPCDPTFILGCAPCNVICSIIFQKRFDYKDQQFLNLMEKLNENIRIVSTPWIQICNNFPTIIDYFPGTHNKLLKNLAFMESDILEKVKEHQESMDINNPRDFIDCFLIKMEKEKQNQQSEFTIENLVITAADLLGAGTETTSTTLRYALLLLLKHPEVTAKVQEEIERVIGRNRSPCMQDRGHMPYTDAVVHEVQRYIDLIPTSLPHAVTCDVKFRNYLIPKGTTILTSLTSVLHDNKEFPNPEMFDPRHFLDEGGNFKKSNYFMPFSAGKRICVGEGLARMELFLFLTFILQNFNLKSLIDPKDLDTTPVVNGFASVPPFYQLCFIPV

rats = experiment: Anhedonic or negative affective side effects
[5] = system: cytochrome P450 (CYP) isoforms; experiment: In vitro drug metabolism: CYP isoforms involved

CN[C@@]1(c2ccccc2Cl)CCCCC1=O.Cl [R(−)-ketamine, (2R)-2-(2-chlorophenyl)-2-(methylamino)cyclohexan-1-one]
Subjects with change from baseline systolic blood pressure >40 mmHg, number ([1]; 30 mg): 0 n
Subjects with change from baseline systolic blood pressure >40 mmHg, percent ([1]; 30 mg): 0.0%
Subjects with post-baseline systolic blood pressure >180 mmHg, number ([1]; 30 mg): 0 n
Subjects with post-baseline systolic blood pressure >180 mmHg, percent ([1]; 30 mg): 0.0%
Systolic blood pressure: Mean ([1]; 30 mg, Day 1, 15 minutes): 116.8 mmHg
Systolic blood pressure: Median ([1]; 30 mg, Day 1, 15 minutes): 119.0 mmHg
Systolic blood pressure: Mean ([1]; 30 mg, Day 1, 40 minutes): 120.1 mmHg
Systolic blood pressure: Median ([1]; 30 mg, Day 1, 40 minutes): 122.0 mmHg
Systolic blood pressure: Mean ([1]; 30 mg, Day 1, 60 minutes): 117.7 mmHg
Systolic blood pressure: Median ([1]; 30 mg, Day 1, 60 minutes): 119.5 mmHg
Systolic blood pressure: Mean ([1]; 30 mg, Day 1, 2 hours): 118.7 mmHg
Systolic blood pressure: Median ([1]; 30 mg, Day 1, 2 hours): 122.0 mmHg
Systolic blood pressure: Mean ([1]; 30 mg, Day 1, 4 hours): 119.0 mmHg
Systolic blood pressure: Median ([1]; 30 mg, Day 1, 4 hours): 120.0 mmHg
Systolic blood pressure: Mean ([1]; 30 mg, Day 1, 6 hours): 118.0 mmHg
Systolic blood pressure: Median ([1]; 30 mg, Day 1, 6 hours): 120.0 mmHg
Systolic blood pressure: Mean ([1]; 30 mg, Day 2 - Discharge): 118.0 mmHg
Systolic blood pressure: Median ([1]; 30 mg, Day 2 - Discharge): 120.0 mmHg
Systolic blood pressure: Mean ([1]; 30 mg, Day 8): 119.2 mmHg
Systolic blood pressure: Median ([1]; 30 mg, Day 8): 121.0 mmHg
Systolic blood pressure: Mean ([1]; 30 mg, Day 15): 123.4 mmHg
Systolic blood pressure: Median ([1]; 30 mg, Day 15): 122.0 mmHg
Systolic blood pressure: Change from Baseline, Mean ([1]; 30 mg, to Day 1, 15 minutes): 1.2 mmHg
Systolic blood pressure: Change from Baseline, Median ([1]; 30 mg, to Day 1, 15 minutes): −1.0 mmHg
Systolic blood pressure: Change from Baseline, Mean ([1]; 30 mg, to Day 1, 40 minutes): 2.0 mmHg
Systolic blood pressure: Change from Baseline, Median ([1]; 30 mg, to Day 1, 40 minutes): 0.0 mmHg
Systolic blood pressure: Change from Baseline, Mean ([1]; 30 mg, to Day 1, 60 minutes): 2.4 mmHg
Systolic blood pressure: Change from Baseline, Median ([1]; 30 mg, to Day 1, 60 minutes): 2.5 mmHg
Systolic blood pressure: Change from Baseline, Mean ([1]; 30 mg, to Day 1, 2 hours): 0.6 mmHg
Systolic blood pressure: Change from Baseline, Median ([1]; 30 mg, to Day 1, 2 hours): 0.0 mmHg
Systolic blood pressure: Change from Baseline, Mean ([1]; 30 mg, to Day 1, 4 hours): 0.9 mmHg
Systolic blood pressure: Change from Baseline, Median ([1]; 30 mg, to Day 1, 4 hours): −1.0 mmHg
Systolic blood pressure: Change from Baseline, Mean ([1]; 30 mg, to Day 1, 6 hours): −0.1 mmHg
Systolic blood pressure: Change from Baseline, Median ([1]; 30 mg, to Day 1, 6 hours): −2.0 mmHg
Systolic blood pressure: Change from Baseline, Mean ([1]; 30 mg, to Day 2 - Discharge): −0.1 mmHg
Systolic blood pressure: Change from Baseline, Median ([1]; 30 mg, to Day 2 - Discharge): −1.0 mmHg
Systolic blood pressure: Change from Baseline, Mean ([1]; 30 mg, to Day 8): 1.2 mmHg
Systolic blood pressure: Change from Baseline, Median ([1]; 30 mg, to Day 8): 1.0 mmHg
Systolic blood pressure: Change from Baseline, Mean ([1]; 30 mg, to Day 15): 5.2 mmHg
Systolic blood pressure: Change from Baseline, Median ([1]; 30 mg, to Day 15): 3.0 mmHg
Subjects with change from baseline systolic blood pressure >40 mmHg, number ([1]; 60 mg): 1 n
Subjects with change from baseline systolic blood pressure >40 mmHg, percent ([1]; 60 mg): 2.9%
Subjects with post-baseline systolic blood pressure >180 mmHg, number ([1]; 60 mg): 0 n
Subjects with post-baseline systolic blood pressure >180 mmHg, percent ([1]; 60 mg): 0.0%
Systolic blood pressure: Mean ([1]; 60 mg, Day 1, 15 minutes): 123.6 mmHg
Systolic blood pressure: Median ([1]; 60 mg, Day 1, 15 minutes): 124.5 mmHg
Systolic blood pressure: Mean ([1]; 60 mg, Day 1, 40 minutes): 123.0 mmHg
Systolic blood pressure: Median ([1]; 60 mg, Day 1, 40 minutes): 122.0 mmHg
Systolic blood pressure: Mean ([1]; 60 mg, Day 1, 60 minutes): 123.9 mmHg
Systolic blood pressure: Median ([1]; 60 mg, Day 1, 60 minutes): 124.0 mmHg
Systolic blood pressure: Mean ([1]; 60 mg, Day 1, 2 hours): 119.0 mmHg
Systolic blood pressure: Median ([1]; 60 mg, Day 1, 2 hours): 120.0 mmHg
Systolic blood pressure: Mean ([1]; 60 mg, Day 1, 4 hours): 119.1 mmHg
Systolic blood pressure: Median ([1]; 60 mg, Day 1, 4 hours): 121.0 mmHg
Systolic blood pressure: Mean ([1]; 60 mg, Day 1, 6 hours): 119.7 mmHg
Systolic blood pressure: Median ([1]; 60 mg, Day 1, 6 hours): 119.5 mmHg
Systolic blood pressure: Mean ([1]; 60 mg, Day 2 - Discharge): 120.8 mmHg
Systolic blood pressure: Median ([1]; 60 mg, Day 2 - Discharge): 122.0 mmHg
Systolic blood pressure: Mean ([1]; 60 mg, Day 8): 123.2 mmHg
Systolic blood pressure: Median ([1]; 60 mg, Day 8): 122.0 mmHg
Systolic blood pressure: Mean ([1]; 60 mg, Day 15): 120.3 mmHg
Systolic blood pressure: Median ([1]; 60 mg, Day 15): 121.0 mmHg
Systolic blood pressure: Change from Baseline, Mean ([1]; 60 mg, to Day 1, 15 minutes): 4.4 mmHg
Systolic blood pressure: Change from Baseline, Median ([1]; 60 mg, to Day 1, 15 minutes): 1.5 mmHg
Systolic blood pressure: Change from Baseline, Mean ([1]; 60 mg, to Day 1, 40 minutes): 4.9 mmHg
Systolic blood pressure: Change from Baseline, Median ([1]; 60 mg, to Day 1, 40 minutes): 3.0 mmHg
Systolic blood pressure: Change from Baseline, Mean ([1]; 60 mg, to Day 1, 60 minutes): 5.3 mmHg
Systolic blood pressure: Change from Baseline, Median ([1]; 60 mg, to Day 1, 60 minutes): 5.0 mmHg
Systolic blood pressure: Change from Baseline, Mean ([1]; 60 mg, to Day 1, 2 hours): 0.9 mmHg
Systolic blood pressure: Change from Baseline, Median ([1]; 60 mg, to Day 1, 2 hours): 1.0 mmHg
Systolic blood pressure: Change from Baseline, Mean ([1]; 60 mg, to Day 1, 4 hours): 1.0 mmHg
Systolic blood pressure: Change from Baseline, Median ([1]; 60 mg, to Day 1, 4 hours): 0.0 mmHg
Systolic blood pressure: Change from Baseline, Mean ([1]; 60 mg, to Day 1, 6 hours): 1.4 mmHg
Systolic blood pressure: Change from Baseline, Median ([1]; 60 mg, to Day 1, 6 hours): 2.0 mmHg
Systolic blood pressure: Change from Baseline, Mean ([1]; 60 mg, to Day 2 - Discharge): 2.7 mmHg
Systolic blood pressure: Change from Baseline, Median ([1]; 60 mg, to Day 2 - Discharge): 1.0 mmHg
Systolic blood pressure: Change from Baseline, Mean ([1]; 60 mg, to Day 8): 5.0 mmHg
Systolic blood pressure: Change from Baseline, Median ([1]; 60 mg, to Day 8): 2.0 mmHg
Systolic blood pressure: Change from Baseline, Mean ([1]; 60 mg, to Day 15): 2.1 mmHg
Systolic blood pressure: Change from Baseline, Median ([1]; 60 mg, to Day 15): 0.0 mmHg
Effect on the addictive properties of morphine [2]: significantly attenuated the addictive properties of morphine
CYP2B6 inhibition (CYP2B6): inhibitor
Lower affinity to the NMDA receptor [3]: 4 fold
Anti-depressant effects [4]: more potent and long lasting anti-depressant effects when compared to S(+)-ketamine
CYP2C19 inhibition (CYP2C19): inhibitor
Anhedonic or negative affective side effects (rats): no anhedonic or negative affective side effects
CYP isoforms involved in the metabolism [5]: primarily CYP2B6, CYP3A4/5, and CYP2C19

— patent US20260027068A1, “METHODS OF ADM[…]-KETAMINE” (Perception Neuroscience, Inc., priority 2022, published 2026)
